Values after ≈ are worked out from the molar mass of the structure shown.
How the values were obtained:
[1] = molecular target: Nucleic Acid; experiment: Apparent binding affinity against DNA (5'-ACAATTAA-3') was determined using DNase I footprinting titration method; type: nucleic-acid assay; conditions: read-out: Kd app
[2] = tested on: Staphylococcus aureus; experiment: In vitro antimicrobial activity against methicillin resistant Staphylococcus aureus 27660; type: functional
[3] = In vitro antimicrobial activity against penicillin-intermediate Streptococcus pneumoniae 49619; type: functional
[4] = tested on: Enterococcus faecalis; experiment: In vitro antimicrobial activity against vancomycin-susceptible Enterococcus faecalis 29212; type: functional
[5] = tested on: Bacillus cereus; experiment: In vitro antimicrobial activity against Bacillus cereus 11778; type: functional
[6] = tested on: Mus musculus; experiment: Acute tolerability of compound […] female mice after intravenous administration was determined; Lethality 5/5; type: functional, organism-based
[7] = In vitro antimicrobial activity against penicillin resistant Streptococcus pneumoniae 51422; type: functional
[8] = tested on: Enterococcus faecalis; experiment: In vitro antimicrobial activity against vancomycin-resistant Enterococcus faecalis 51559; type: functional
[9] = tested on: Candida albicans; experiment: In vitro antimicrobial activity against Candida albicans 38247; type: functional
[10] = tested on: Mus musculus; experiment: Acute tolerability of compound in 4 ICR female mice after intravenous administration was determined; No adverse effects; type: functional, organism-based
[11] = tested on: Mus musculus; experiment: Acute tolerability of compound in 4 ICR female mice after intravenous administration was determined; Lethality 1/4; type: functional, organism-based
[12] = tested on: Mus musculus; experiment: Acute tolerability of compound in 4 ICR female mice after intravenous administration was determined; no adverse effects; type: functional, organism-based
[13] = tested on: Mus musculus; experiment: Acute tolerability of compound in 5 ICR female mice after intravenous administration was determined; Lethality 1/5
[14] = tested on: Mus musculus; experiment: Acute tolerability of compound […] female mice after intravenous administration was determined; Lethality 3/5; type: functional, organism-based
[15] = tested on: Enterococcus faecalis; experiment: In vitro antimicrobial activity against vancomycin-resistant Enterococcus faecalis 51559
[16] = tested on: Staphylococcus aureus; experiment: In vitro antimicrobial activity against MSSA 13709; type: functional
[17] = tested on: Mus musculus; experiment: Acute tolerability of compound […] female mice after intravenous administration was determined; 5/5 lethargy; type: functional, organism-based
[18] = Candida albicans, read-out: MIC

Row | SMILES | Kd [1] [nM] | MIC [2] [µg/mL] | MIC [3] [µg/mL] | MIC [4] [µg/mL] | MIC [5] [µg/mL] | MIC [7] [µg/mL] | MIC [9, 18] [µg/mL] | other results
1 | Cn1cc(NC(=O)c2cc(NC(=O)c3cc(NC(=O)c4sccc4Cl)cn3C)cn2C)cc1C(=O)NCCN1CCC(F)(F)CC1 | 50 | 2 (≈ 2.96 µM) | 0.5 (≈ 0.741 µM) | 2 (≈ 2.96 µM) | – | – | – | –
2 | Cn1cc(NC(=O)c2cc(NC(=O)c3cc(-c4ccc(Cl)cc4F)cn3C)cn2C)cc1C(=O)NCCN1CCOCC1 | 0.1 | 2 (≈ 3.28 µM) | 0.25 (≈ 0.41 µM) | 0.5 (≈ 0.82 µM) | 0.5 (≈ 0.82 µM) | 0.062 (≈ 0.102 µM) | > 32 | Acute tolerability [6]: Lethality 5/5; MIC [8]: 0.5 µg/mL (≈ 0.82 µM)
3 | Cn1cc(NC(=O)c2cc(NC(=O)c3cc(NC(=O)c4cc5ccccc5cn4)cn3C)cn2C)cc1C(=O)NCCN1CCSCC1 | 1 | 0.125 (≈ 0.187 µM) | 0.031 (≈ 0.0464 µM) | 0.25 (≈ 0.374 µM) | 0.25 (≈ 0.374 µM) | 0.062 (≈ 0.0928 µM) | > 32 | Acute tolerability [10]: No adverse effects; MIC [8]: 0.125 µg/mL (≈ 0.187 µM)
4 | Cn1cc(NC(=O)c2cc(NC(=O)c3cc(NC(=O)c4cn5ccsc5n4)cn3C)cn2C)cc1C(=O)NCCN1CCOCC1 | – | – | 0.031 (≈ 0.0479 µM) | 0.5 (≈ 0.773 µM) | 2 (≈ 3.09 µM) | – | > 32 | Acute tolerability [11]: Lethality 1/4
5 | Cn1cc(NC(=O)c2cc(NC(=O)c3cc(-c4sccc4Cl)cn3C)cn2C)cc1C(=O)NCCN1CCOCC1 | 20 | 4 (≈ 6.69 µM) | 0.125 (≈ 0.209 µM) | 1 (≈ 1.67 µM) | 1 (≈ 1.67 µM) | 0.125 (≈ 0.209 µM) | – | Acute tolerability [12]: no adverse effects; MIC [8]: 1 µg/mL (≈ 1.67 µM); MIC [9]: > 32 µg/mL
6 | Cn1cc(NC(=O)c2cc(NC(=O)c3cc(NC(=O)c4sccc4Cl)cn3C)cn2C)cc1C(=O)NCCN1CCSCC1 | < 1 | 1 (≈ 1.52 µM) | 0.125 (≈ 0.19 µM) | 0.5 (≈ 0.761 µM) | 0.5 (≈ 0.761 µM) | 0.062 (≈ 0.0943 µM) | > 32 | Acute tolerability [10]: No adverse effects; MIC [8]: 2 µg/mL (≈ 3.04 µM)
7 | Cn1cc(NC(=O)c2cc(NC(=O)c3cc(NC(=O)c4sccc4Cl)cn3C)cn2C)cc1C(=O)NCCN1CCC(F)CC1 | 5 | 1 (≈ 1.52 µM) | 0.031 (≈ 0.0472 µM) | 1 (≈ 1.52 µM) | 1 (≈ 1.52 µM) | 0.125 (≈ 0.19 µM) | > 32 | MIC [8]: 0.5 µg/mL (≈ 0.761 µM); Acute tolerability [13]: Lethality 1/5
8 | Cc1cnc(-c2cc(C(=O)Nc3cc(C(=O)Nc4cc(C(=O)NCCN5CCOCC5)n(C)c4)n(C)c3)n(C)c2)cn1 | – | 2 (≈ 3.49 µM) | 0.25 (≈ 0.436 µM) | 0.5 (≈ 0.872 µM) | 1 (≈ 1.74 µM) | 0.25 (≈ 0.436 µM) | > 32 | Acute tolerability [6]: Lethality 5/5; MIC [8]: 4 µg/mL (≈ 6.97 µM)
9 | Cn1cc(NC(=O)c2cc(NC(=O)c3cc(NC(=O)c4sccc4Cl)cn3C)cn2C)cc1C(=O)NCCN1CCCC1 | 2 | 8 (≈ 12.8 µM) | 2 (≈ 3.2 µM) | 16 (≈ 25.6 µM) | – | – | – | –
10 | CN(C)CCCNC(=O)c1cc(NC(=O)c2cc(NC(=O)c3cc(NC(=O)c4sccc4Cl)cn3C)cn2C)cn1C | 5 | 8 (≈ 13 µM) | 4 (≈ 6.52 µM) | 16 (≈ 26.1 µM) | – | – | – | –
11 | Cn1cc(NC(=O)c2cc(NC(=O)c3cc(NC(=O)c4sccc4Cl)cn3C)cn2C)cc1C(=O)NCCCN1CCCCC1 | 50 | 8 (≈ 12.2 µM) | 4 (≈ 6.12 µM) | 4 (≈ 6.12 µM) | 8 (≈ 12.2 µM) | 16 (≈ 24.5 µM) | > 32 | Acute tolerability [14]: Lethality 3/5; MIC [15]: 16 µg/mL (≈ 24.5 µM)
12 | Cn1cc(NC(=O)c2cc(NC(=O)c3cc(-c4nccs4)cn3C)cn2C)cc1C(=O)NCCN1CCOCC1 | – | – | > 32 | > 32 | – | – | – | MIC [16]: > 32 µg/mL
13 | Cn1cc(NC(=O)c2cc(NC(=O)c3cc(NC(=O)c4sccc4Cl)cn3C)cn2C)cc1C(=O)NCCN1CCCCC1 | 5 | 0.5 (≈ 0.782 µM) | 0.25 (≈ 0.391 µM) | 0.5 (≈ 0.782 µM) | 0.5 (≈ 0.782 µM) | 2 (≈ 3.13 µM) | 32 (≈ 50.1 µM) | Acute tolerability [17]: 5/5 lethargy; MIC [15]: 2 µg/mL (≈ 3.13 µM)
14 | Cn1cc(NC(=O)c2cc(NC(=O)c3cc(NC(=O)c4sccc4Cl)cn3C)cn2C)cc1C(=O)NCCCN1CCOCC1 | 71 | 8 (≈ 12.2 µM) | 2 (≈ 3.05 µM) | 4 (≈ 6.11 µM) | 8 (≈ 12.2 µM) | 8 (≈ 12.2 µM) | > 32 | MIC [8]: 8 µg/mL (≈ 12.2 µM)
15 | Cn1cc(NC(=O)c2cc(NC(=O)c3cc(-c4ccc(F)cc4Cl)cn3C)cn2C)cc1C(=O)NCCN1CCOCC1 | – | – | 4 (≈ 6.56 µM) | 8 (≈ 13.1 µM) | – | – | – | MIC [16]: 16 µg/mL (≈ 26.2 µM)
16 | Cn1cc(NC(=O)c2cc(NC(=O)c3cc(NC(=O)c4sccc4Cl)cn3C)cn2C)cc1C(=O)NCCc1ccccn1 | 100 | 2 (≈ 3.16 µM) | 2 (≈ 3.16 µM) | 2 (≈ 3.16 µM) | – | – | – | –
17 | Cn1cc(NC(=O)c2cc(NC(=O)c3cc(NC(=O)c4cc5ccccc5cn4)cn3C)cn2C)cc1C(=O)NCCN1CCCCC1 | – | 0.25 (≈ 0.385 µM) | 0.031 (≈ 0.0477 µM) | 0.062 (≈ 0.0954 µM) | – | – | – | –
18 | Cn1cc(NC(=O)c2cc(NC(=O)c3cc(-c4ccccc4Cl)cn3C)cn2C)cc1C(=O)NCCN1CCOCC1 | – | 32 (≈ 54 µM) | 32 (≈ 54 µM) | 16 (≈ 27 µM) | – | – | – | –
19 | Cn1cc(NC(=O)c2cc(NC(=O)c3cc(-c4sc(Cl)c(Cl)c4Cl)cn3C)cn2C)cc1C(=O)NCCN1CCOCC1 | – | 16 (≈ 24 µM) | 8 (≈ 12 µM) | > 32 | – | – | – | –
20 | Cn1cc(NC(=O)c2cc(NC(=O)c3cc(-c4ccccc4F)cn3C)cn2C)cc1C(=O)NCCN1CCOCC1 | – | 8 (≈ 13.9 µM) | 1 (≈ 1.74 µM) | 0.5 (≈ 0.869 µM) | – | – | – | –
21 | Cn1cc(NC(=O)c2cc(NC(=O)c3cc(-c4sccc4C#N)cn3C)cn2C)cc1C(=O)NCCN1CCOCC1 | – | 4 (≈ 6.79 µM) | 0.5 (≈ 0.849 µM) | 2 (≈ 3.4 µM) | – | – | – | –
22 | Cn1cc(NC(=O)c2cc(NC(=O)c3cc(-c4ccncc4)cn3C)cn2C)cc1C(=O)NCCN1CCOCC1 | – | > 32 | 2 (≈ 3.58 µM) | 32 (≈ 57.3 µM) | – | – | – | –
23 | Cn1cc(NC(=O)c2cc(NC(=O)c3cc(-c4ccc(F)cc4F)cn3C)cn2C)cc1C(=O)NCCN1CCOCC1 | – | 2 (≈ 3.37 µM) | 0.125 (≈ 0.211 µM) | 1 (≈ 1.68 µM) | – | – | – | –
24 | Cn1cc(NC(=O)c2cc(NC(=O)c3cc(NC(=O)c4sc5cc(F)ccc5c4Cl)cn3C)cn2C)cc1C(=O)NCCN1CCOCC1 | – | – | 0.125 (≈ 0.176 µM) | 0.25 (≈ 0.353 µM) | 0.25 (≈ 0.353 µM) | – | > 32 | Acute tolerability [10]: No adverse effects
25 | CN1CCN(NC(=O)c2cc(NC(=O)c3cc(NC(=O)c4cc(NC(=O)c5cc6ccccc6cn5)cn4C)cn3C)cn2C)CC1 | – | 16 (≈ 25.1 µM) | 16 (≈ 25.1 µM) | 16 (≈ 25.1 µM) | – | – | – | –
26 | CCCCc1ccc(-c2cc(C(=O)Nc3cc(C(=O)Nc4cc(C(=O)NCCN5CCOCC5)n(C)c4)n(C)c3)n(C)c2)nc1 | – | 8 (≈ 13 µM) | 2 (≈ 3.25 µM) | 32 (≈ 52.1 µM) | – | – | – | –
27 | Cn1cc(NC(=O)c2cc(NC(=O)c3cc(NC(=O)c4sccc4Cl)cn3C)cn2C)cc1C(=O)NCc1ccccn1 | – | > 32 | 1 (≈ 1.62 µM) | 4 (≈ 6.46 µM) | – | – | – | –
28 | Cn1cc(NC(=O)c2cc(NC(=O)c3cc(-c4ccc5nonc5c4)cn3C)cn2C)cc1C(=O)NCCN1CCOCC1 | – | 8 (≈ 13.3 µM) | 8 (≈ 13.3 µM) | 8 (≈ 13.3 µM) | – | – | – | –
29 | Cn1cc(NC(=O)c2cc(NC(=O)c3cc(NC(=O)c4cc5ccccc5cn4)cn3C)cn2C)cc1C(=O)NCCCN1CCCCC1 | – | 4 (≈ 6.03 µM) | 0.25 (≈ 0.377 µM) | 4 (≈ 6.03 µM) | – | – | – | –
30 | Cn1cc(NC(=O)c2cc(NC(=O)c3cc(-c4cc5ccccc5o4)cn3C)cn2C)cc1C(=O)NCCN1CCOCC1 | – | 2 (≈ 3.35 µM) | 0.5 (≈ 0.837 µM) | 4 (≈ 6.69 µM) | – | – | – | –
